Reference: patent US10570184B2, “GLP-1/glucagon receptor co-agonists for medical use” (Novo Nordisk A/S, priority 2014, dated 2020)
Starred links: 1 amine or outer side, 2 acyl side, 3 side chain; linkers in the order of their positions; H or OH if unused. Non-standard residues stand in square brackets, D forms with d. Residues, ends and D or L forms follow the SMILES beside them. Groups on a side chain read outwards from the residue. *: point of attachment. C18 diacid = O=C(O)CCCCCCCCCCCCCCCCC(=O)*; γGlu = O=C(O)[C@H](CCC(=O)[*:2])N[*:1]; AEEA = NCCOCCOCC(=O)O; Aib = CC(C)(N)C(=O)O

Target: T1, human GLP-1 receptor (Homo sapiens, UniProt P43220)
T1 construct: expressed in transfected cells; host or cells: membranes of BHK cells (parent BHKTS13), clone FCW467-12A
T1 sequence (P43220 24-463): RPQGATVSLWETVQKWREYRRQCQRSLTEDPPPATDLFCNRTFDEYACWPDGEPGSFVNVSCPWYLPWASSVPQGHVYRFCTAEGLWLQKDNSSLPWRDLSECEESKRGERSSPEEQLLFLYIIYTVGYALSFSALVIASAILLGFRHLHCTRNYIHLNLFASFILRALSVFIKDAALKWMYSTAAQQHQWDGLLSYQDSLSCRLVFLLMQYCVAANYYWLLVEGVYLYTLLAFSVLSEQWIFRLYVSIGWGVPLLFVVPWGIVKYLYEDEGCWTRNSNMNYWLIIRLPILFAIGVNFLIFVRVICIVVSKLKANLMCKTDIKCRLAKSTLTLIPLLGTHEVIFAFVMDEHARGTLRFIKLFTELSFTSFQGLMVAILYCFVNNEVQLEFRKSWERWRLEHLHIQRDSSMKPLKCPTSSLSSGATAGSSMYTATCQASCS
Assay: Assay (II)(a) GLP-1 receptor binding, 125I-GLP-1 displacement SPA on BHK membranes
Conditions: without presence of serum albumin; read-out: GLP-1R IC50 (nM) [Assay (II)(a)]
Protocol: The GLP-1 receptor (GLP-1R) binding is a measure of affinity of a compound for the human GLP-1 receptor. The receptor binding of each compound to the human GLP-1 receptor was measured in a displacement binding assay. In this type of assay a labelled ligand (in this case 125I-GLP-1) is bound to the receptor. Each derivative was added in a series of concentrations to isolated membranes containing the human GLP-1 receptor and displacement of the labelled ligand was monitored. The receptor binding was reported as the concentration at which half of the labelled ligand was displaced from the receptor, the IC50 value. In order to test the binding of the derivatives to albumin, the assay may be performed in a very low concentration of serum albumin (max. 0.001% final assay concentration) as well as in the presence of a (considerably) higher concentration of serum albumin (2.0% final assay concentration). An increase of the IC50 value, in the presence of serum albumin indicates an affinity to serum albumin and represents a method to predict a protracted pharmacokinetic profile of the test substance in animal models. The following chemicals were used in the assay: DMEM w/o phenol red (Gibco 11880-028), Pen/strep (Invitrogen 15140-122), G418 (Invitrogen 10131-027), 1 M Hepes (Gibco 15630), EDTA (Invitrogen 15575-038), PBS (Invitrogen 14190-094), fetal calf serum (Invitrogen 16140-071), EGTA, MgCl2 (Merck 1.05832.1000), Tween 20 (Amresco 0850C335), SPA particles (wheat germ agglutinin (WGA) SPA beads, Perkin Elmer RPNQ0001), [125I]-GLP-1]-(7-36)NH2 (produced in-house), OptiPlate™-96 (Perkin Elmer). Buffer 1 consisted of 20 mM Na-HEPES plus 10 mM EDTA and pH was adjusted to 7.4. Buffer 2 consisted of 20 mM Na-HEPES plus 0.1 mM EDTA and pH was adjusted to 7.4. Assay buffer consisted of 50 mM HEPES supplemented with 5 mM EGTA, 5 mM MgCl2, 0.005% Tween 20 and pH was adjusted to 7.4. The cells used in this assay (clone FCW467-12A) were BHK cells with BHKTS13 as a parent cell line. The cells express the human GLP-1 receptor. The cells were grown at 5% CO2 in DMEM, 10% fetal calf serum, 1% Pen/Strep (Penicillin/Streptomycin) and 1.0 mg/ml of the selection marker G418. To make a membrane preparation the cells were grown to approximately 80% confluence. The cells were washed twice in phosphate-buffered saline and harvested. The cells were pelleted using a brief centrifugation and the cell pellet was kept on ice. The cell pellet was homogenised with ULTRA-THURRAX dispersing instrument for 20-30 seconds in a suitable amount of buffer 1 (e.g., 10 ml). The homogenate was centrifuged for 15 minutes. The pellet was re-suspended (homogenised) in 10 ml buffer 2 and centrifuged. This step was repeated once more. The resulting pellet was re-suspended in buffer 2 and the protein concentration was determined. The membranes were aliquoted and stored at minus 80° C. • 1. For the receptor binding assay, 50 μl of the assay buffer was added to each well of an assay plate. • 2. Test compounds were serially diluted to give the following concentrations: 8×10EE-7 M, 8×10EE-8 M, 8×10EE-9 M, 8×10EE-10 M, 8×10EE-11 M, 8×10EE-12 M and 8×10EE-13 M. Twenty-five μl were added to appropriate wells in the assay plate. • 3. Cell membrane aliquots were thawed and diluted to their working concentration. Fifty μl were added to each well in the assay plate. • 4. WGA SPA beads were suspended in assay buffer at 20 mg/ml. The suspension was diluted to 10 mg/ml in assay buffer just prior to addition to the assay plate. Fifty μl were added to each well in the assay plate. • 5. The incubation was started by adding 25 μl of […] solution of [125I]-GLP-1]-(7-36)NH2 to each well of the assay plate. A 25 μl aliquot was reserved for measuring total counts/well. • 6. The assay plate was incubated for 2 h at 30° C. • 7. The assay plate was centrifuged for 10 min. • 8. The assay plate was read in a Perkin Elmer TopCount NXT instrument. […]

Compound	IC50
CC[C@H](C)[C@H](NC(=O)[C@H](CC(C)C)NC(=O)[C@H](Cc1c[nH]c2ccccc12)NC(=O)[C@H](CCCCNC(=O)COCCOCCNC(=O)COCCOCCNC(=O)CC[C@H](NC(=O)CC[C@H](NC(=O)CC[C@H](NC(=O)CCCCCCCCCCCCCCCCC(=O)O)C(=O)O)C(=O)O)C(=O)O)NC(=O)[C@@H](NC(=O)[C@H](Cc1ccccc1)NC(=O)[C@H](CC(=O)O)NC(=O)[C@H](CCCNC(=N)N)NC(=O)[C@H](C)NC(=O)[C@H](CCCNC(=N)N)NC(=O)[C@H](CCCNC(=N)N)NC(=O)[C@H](CO)NC(=O)[C@H](CCC(=O)O)NC(=O)[C@H](CC(C)C)NC(=O)[C@H](Cc1ccc(O)cc1)NC(=O)[C@H](CCCCN)NC(=O)[C@H](CO)NC(=O)[C@H](Cc1ccc(O)cc1)NC(=O)[C@H](CC(=O)O)NC(=O)[C@H](CO)NC(=O)[C@@H](NC(=O)[C@H](Cc1ccccc1)NC(=O)[C@@H](NC(=O)CNC(=O)[C@H](CCC(N)=O)NC(=O)C(C)(C)NC(=O)[C@@H](N)Cc1c[nH]cn1)[C@@H](C)O)[C@@H](C)O)C(C)C)C(=O)N[C@@H](CO)C(=O)N[C@H](C(N)=O)[C@@H](C)O [Chem. 11, N^ε24-[2-[2-[2-[[2-[2-[2-[[(4S)-4-carboxy-4-[[(4S)-4-carboxy-4-[[(4S)-4-carboxy-4-(17-carboxyheptadecanoylamino)butanoyl]amino]butanoyl]amino]butanoyl]amino]ethoxy]ethoxy]acetyl]amino]ethoxy]ethoxy]acetyl]-[Aib2,Glu15,Arg20,Lys24,Ile27,Ser28]-Glucagon amide] (H-H[Aib]QGTFTSDYSKYLESRRARDFVK([AEEA-AEEA-γGlu-γGlu-γGlu-C18 diacid])WLIST-NH2)	0.5 nM
CC[C@H](C)[C@H](NC(=O)[C@H](CC(C)C)NC(=O)[C@H](Cc1c[nH]c2ccccc12)NC(=O)[C@H](CCC(N)=O)NC(=O)[C@@H](NC(=O)[C@H](Cc1ccccc1)NC(=O)[C@H](CC(=O)O)NC(=O)[C@H](CCCNC(=N)N)NC(=O)[C@H](C)NC(=O)[C@H](CCCNC(=N)N)NC(=O)[C@H](CCCNC(=N)N)NC(=O)[C@H](C)NC(=O)[C@H](CC(=O)O)NC(=O)[C@H](CC(C)C)NC(=O)[C@H](Cc1ccc(O)cc1)NC(=O)[C@H](CCCCN)NC(=O)[C@H](CO)NC(=O)[C@H](CC(C)C)NC(=O)[C@H](CC(=O)O)NC(=O)[C@H](CO)NC(=O)[C@@H](NC(=O)[C@H](Cc1ccccc1)NC(=O)[C@@H](NC(=O)CNC(=O)[C@H](CCC(N)=O)NC(=O)C(C)(C)NC(=O)[C@@H](N)Cc1c[nH]cn1)[C@@H](C)O)[C@@H](C)O)C(C)C)C(=O)N[C@@H](CCCCNC(=O)COCCOCCNC(=O)COCCOCCNC(=O)CC[C@H](NC(=O)CC[C@H](NC(=O)CC[C@H](NC(=O)CCCCCCCCCCCCCCCCC(=O)O)C(=O)O)C(=O)O)C(=O)O)C(=O)N[C@H](C(N)=O)[C@@H](C)O [Chem. 5, N^ε28-[2-[2-[2-[[2-[2-[2-[[(4S)-4-carboxy-4-[[(4S)-4-carboxy-4-[[(4S)-4-carboxy-4-(17-carboxyheptadecanoylamino)butanoyl]amino]butanoyl]amino]butanoyl]amino]ethoxy]ethoxy]acetyl]amino]ethoxy]ethoxy]acetyl]-[Aib2,Leu10,Ala16,Arg20,Ile27,Lys28]-Glucagon amide] (H-H[Aib]QGTFTSDLSKYLDARRARDFVQWLIK([AEEA-AEEA-γGlu-γGlu-γGlu-C18 diacid])T-NH2; N-terminus assumed)	0.1 nM
